The target of assay [1] is Protein Tat (Human immunodeficiency virus type 1 group M subtype B (isolate HXB2)(HIV-1), UniProt P04608). Format: functional.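 Note: tat binding to TAR RNA read out by fluorescence polarization.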
Assay [2] can be described thus: HIV-1 Vif–A3G interaction blockers – biochemical, TR-FRET, GST-Vif 1-94, biotin-A3G peptide, dose response retest, primary screen (AID 1117319).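 Note: TR-FRET signal of purified GST-Vif binding a biotinylated A3G peptide; inhibitors lower the FRET signal by blocking Vif and A3G binding.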 Format: functional.
A short description of assay [3]: cells.
Assay [4] has as its target Major prion protein (Homo sapiens, UniProt P04156). The assay is classed as functional, cell-based.
The target in assay [5] is T1, Leucine aminopeptidase (Plasmodium falciparum 3D7, UniProt Q8IL11).
T1 sequence (Q8IL11 whole entry): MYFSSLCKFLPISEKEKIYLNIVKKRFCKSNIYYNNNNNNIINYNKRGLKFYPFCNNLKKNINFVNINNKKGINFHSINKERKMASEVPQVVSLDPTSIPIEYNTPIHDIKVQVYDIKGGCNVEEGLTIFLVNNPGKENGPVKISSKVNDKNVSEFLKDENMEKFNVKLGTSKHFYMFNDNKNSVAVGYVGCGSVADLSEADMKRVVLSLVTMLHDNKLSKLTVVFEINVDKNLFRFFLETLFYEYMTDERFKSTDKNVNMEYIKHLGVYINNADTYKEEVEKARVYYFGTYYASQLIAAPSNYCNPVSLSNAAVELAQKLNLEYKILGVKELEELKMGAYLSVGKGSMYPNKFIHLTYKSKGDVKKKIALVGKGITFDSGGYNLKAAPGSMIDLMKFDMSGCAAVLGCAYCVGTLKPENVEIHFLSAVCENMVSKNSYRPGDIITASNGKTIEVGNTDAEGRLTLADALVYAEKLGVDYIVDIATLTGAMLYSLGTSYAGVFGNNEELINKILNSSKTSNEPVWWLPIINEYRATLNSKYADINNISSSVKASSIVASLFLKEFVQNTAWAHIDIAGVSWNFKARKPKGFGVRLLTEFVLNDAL
As to the kind of experiment: P. falciparum M17LAP inhibitors, primary screen, biochemical, fluorogenic H-Leu-NHMec substrate, 1536-well (AID 1619). Format: functional.

Assay [6] deals with Mitogen-activated protein kinase 10 (Homo sapiens, UniProt P53779). Kind of assay: Dose response biochemical screening assay for inhibitors of c-Jun N-Terminal Kinase 3 (JNK3). [Related pubchem assays: 746 ].
For assay [7], the target named is G-protein coupled receptor 183 (Homo sapiens, UniProt P32249). Kind of assay: Dose-response confirmation of small molecule antagonists of the EBI2 receptor via a luminescent beta-arrestin assay. The assay is classed as functional.
Assay [8] concerns the target Beta-galactosidase (Escherichia coli, UniProt Q8VNN2). Kind of assay: Dose response counterscreen for EBI2 assay utilizing the enzyme, b-galactosidase. The assay is classed as functional. (The purpose of a counterscreen is to sort out artefacts and off-target activity.)
Assay [9] can be described thus: YAP1 overexpression rescue of CTGF inhibition – DLD1 cells, RT-qPCR, cherry-pick, mechanism study for YAP1 pathway inhibitor project, dose response (AID 1053127). The assay is classed as functional, cell-based. The conditions noted are these: DLD-1. For orientation: In qPCR the cycle at which signal appears reflects the starting amount.
In assay [10] the target is T2, Low molecular weight phosphotyrosine protein phosphatase (Homo sapiens, UniProt P24666).
T2 sequence (P24666 whole entry): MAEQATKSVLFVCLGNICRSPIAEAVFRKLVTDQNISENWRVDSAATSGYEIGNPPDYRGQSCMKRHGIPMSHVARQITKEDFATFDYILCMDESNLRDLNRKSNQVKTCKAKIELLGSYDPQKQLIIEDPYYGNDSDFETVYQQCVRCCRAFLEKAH
As to the kind of experiment: inhibition of LMPTP-A enzymatic activity – biochemical, OMFP substrate, fluorescence intensity, set 2, dose response (AID 743307). The assay is classed as functional.

In assay [11] the target is T2, Low molecular weight phosphotyrosine protein phosphatase. As to the kind of experiment: inhibition of human LMPTP enzyme activity – biochemical, absorbance, pNPP substrate, LMPTP-A isoform, set 2, orthogonal assay, dose response (AID 743308). The assay is classed as functional.
A short description of assay [12]: P. falciparum Dd2 growth inhibitors, dose response, SYBR Green, cherry-picked samples (AID 1159567). Format: functional, cell-based.
The nature of assay [13]: toxicity to human hepatoma HepG2 cells – cell-based, cherry-picked samples, cytotoxicity control, dose response (AID 1159577). Format: functional.
Assay [14] is described as follows: growth inhibition of yeast DHODH-expressing 3D7 parasites – SYBR Green, dry powder samples, dose response (AID 1159570).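 Note: parasite growth measured after 72 hours of compound exposure.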 Format: functional, cell-based.
A short description of assay [15]: Dd2 malaria parasite growth inhibition potency – SYBR Green, dry powder samples, dose response (AID 1159566).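 Note: potency for growth inhibition with lower SYBR green DNA signal.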 The assay is classed as functional, cell-based.
A short description of assay [16]: growth inhibition of PfATP4-mutant resistant parasites – NITD609-resistant line, SYBR Green, dry powder, dose response (AID 1159571).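 Note: parasites synchronized at ring stage by sorbitol before testing.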 The assay is classed as functional, cell-based.
The nature of assay [17]: toxicity to human HepG2 hepatoma cells – cell-based, plate reader, dry powder samples, cytotoxicity control, dose response (AID 1159569).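 Note: inhibitor potency with signal falling toward the positive control level.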 The assay is classed as functional.
Assay [18] in a line: MITF Measured in Cell-Based System Using Plate Reader - 2084-01_Inhibitor_Dose_DryPowder_Activity_Set6. The assay is classed as functional.
Assay [19] can be described thus: melanocyte viability loss, MITF-dependent cells, cell-based, plate reader, dry powder, cytotoxicity control, dose response (AID 651920). Format: functional.
The nature of assay [20]: viability loss in MITF-independent A375 cells – cell-based, CellTiter-Glo luminescence, dry powder, set 6, counter-screen for MITF inhibitor project, dose response (AID 624488). Format: functional. (In general: Cellular ATP, detected with luciferase, serves as a proxy for viable cell number.)
Assay [21] has as its target T3, Heat shock factor protein 1 (Mus musculus, UniProt P38532).
T3 sequence (P38532 whole entry): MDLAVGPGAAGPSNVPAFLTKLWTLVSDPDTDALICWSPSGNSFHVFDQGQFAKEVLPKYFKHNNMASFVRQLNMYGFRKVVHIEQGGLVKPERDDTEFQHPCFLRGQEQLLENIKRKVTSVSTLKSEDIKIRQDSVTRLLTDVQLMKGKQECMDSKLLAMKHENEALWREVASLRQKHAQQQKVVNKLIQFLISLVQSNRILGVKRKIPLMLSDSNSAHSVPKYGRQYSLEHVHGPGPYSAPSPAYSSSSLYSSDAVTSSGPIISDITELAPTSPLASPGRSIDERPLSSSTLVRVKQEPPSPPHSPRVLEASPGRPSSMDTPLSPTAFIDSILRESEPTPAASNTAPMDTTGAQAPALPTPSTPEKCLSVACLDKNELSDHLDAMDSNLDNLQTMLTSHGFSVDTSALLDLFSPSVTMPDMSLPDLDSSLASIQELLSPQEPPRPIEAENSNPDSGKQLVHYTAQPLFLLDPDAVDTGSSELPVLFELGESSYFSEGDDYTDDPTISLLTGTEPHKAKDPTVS
Kind of assay: enhancement of HSF1-driven luciferase signal – cell-based, NIH3T3, luminescence, dose retest, confirmation (AID 435004).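 Note: stress induced by proteasome inhibitor MG132 added 30 min after compound; luciferase reporter driven by HSF1 response element in NIH3T3 cells; actives raise luminescence as potentiators of the MG132 stress response.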 Format: functional.

A short description of assay [22]: viability loss in MITF-independent A375 cells – cell-based, CellTiter-Glo luminescence, dry powder, set 2, counter-screen for MITF inhibitor project, dose response (AID 624489).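 Note: actives are compounds lowering A375 viability meaning general cytotoxicity.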 Format: functional. The conditions noted are these: A-375.
The nature of assay [23]: viability loss in MITF-independent A375 cells – cell-based, CellTiter-Glo luminescence, dry powder, set 7, counter-screen for MITF inhibitor project, dose response (AID 624490). The assay is classed as functional. The conditions noted are these: A-375.
The subject of assay [24] is INS1. As to the kind of experiment: INS-1E survival protection against cytokine death – cell-based, luminescence, retest, dose response (AID 449756).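 Note: cell death triggered by IL-1 beta plus TNF-alpha plus IFN-gamma mixture; protective hits raise ATP signal compared with cytokine alone wells.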 The note with it: Rattus norvegicus. The assay is classed as functional.
A short description of assay [25]: cytotoxicity in MITF-independent A375 cells – cell-based, CellTiter-Glo luminescence, dry powder, set 9, counter-screen for MITF modulator project, dose response (AID 651591). The conditions noted are these: A-375. The assay is classed as functional.
The nature of assay [26]: cytotoxicity in MITF-independent A375 cells – cell-based, CellTiter-Glo luminescence, dry powder, set 4, counter-screen for MITF inhibitor project, dose response (AID 624364).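 Note: A375 melanoma cells are MITF independent so this is a counter screen.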 The note with it: A-375. Format: functional.
A short description of assay [27]: MITF Orthogonal Assay: SK-MEL-5 CTG Assay Measured in Cell-Based System Using Plate Reader - 2084-02_Inhibitor_Dose_DryPowder_Activity_Set5. The assay is classed as functional.
The target in assay [28] is T4, Calpain-2 catalytic subunit (Sus scrofa, UniProt P43367).
T4 sequence (P43367 whole entry): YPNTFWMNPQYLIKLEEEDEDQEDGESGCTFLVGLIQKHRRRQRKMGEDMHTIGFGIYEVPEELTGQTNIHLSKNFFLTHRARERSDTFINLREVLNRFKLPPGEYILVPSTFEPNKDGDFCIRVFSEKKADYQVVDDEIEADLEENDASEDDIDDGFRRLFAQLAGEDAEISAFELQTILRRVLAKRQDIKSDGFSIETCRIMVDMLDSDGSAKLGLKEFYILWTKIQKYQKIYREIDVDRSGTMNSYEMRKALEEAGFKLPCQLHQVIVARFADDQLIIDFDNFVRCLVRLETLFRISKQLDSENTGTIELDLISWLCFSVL
As to the kind of experiment: m-calpain protease blockers, concentration series – biochemical, fluorogenic peptide substrate, dose response (AID 1420). The assay is classed as functional.

The nature of assay [29]: cytotoxicity in melanoma parental cells – cell-based, CellTiter-Glo, dry powder, set 6, MITF inhibitor project, dose response (AID 624429). The assay is classed as functional, SK-MEL-5.
The target in assay [30] is Nonstructural protein 1 (Influenza A virus, UniProt Q194T2). The assay is classed as functional, Influenza A virus (A/California/07/2009(H1N1)).
Assay [31] can be described thus: IC50 of insulin release inhibition, rat insulinoma INS-1E line, 5 mM glucose, cell-based (AID 1117331). Format: functional.
Assay [32] in a line: cells. The conditions noted are these: INS-1E. The assay is classed as functional, cell-based.

Values joined by “and” are separate entries in the source; they are usually repeats but may differ in a detail not shown here. Identical values can stand only once. Active and inactive are the calls of the source. A value given as a limit tells only on which side of the number the result lay.

One may read the IC50 as the concentration needed to halve the response being measured. One may read the AC50 as the concentration giving half of the maximal activity seen. The EC50 is the concentration that produces a half-maximal response.

`COc1cc(/C=C(\CC(=O)O)c2nc3ccccc3s2)cc(OC)c1O`: the IC50 in [1] and in [2] was > 100 µM (active) each time.
Take `N#Cc1c(O)nc(SCC(=O)Nc2cccc(Cl)c2)nc1-c1ccco1`: the IC50 in [3] was > 138 µM (inactive); in [4] it was 1.69 µM (active); in [5], 2.5 µM (active); in assay [6], 29.7 µM (not active).
Consider `O=C(/C=C/c1ccccc1)N1CCN(S(=O)(=O)c2ccc(F)cc2)CC1`, for which the IC50 in assay [7] was 0.626 µM (active); in assay [8] it was > 80 µM (inactive).
Regarding `CS(=O)(=O)N1CC(=O)N2[C@H](C1)[C@@H](c1ccc(C#Cc3ccc(F)cc3)cc1)[C@@H]2CO`, the AC50 in assay [9] was > 26 µM (inactive).
Consider `c1ccc(-c2nc(N3CCCC3)c3ccccc3n2)cc1`, for which the values for the IC50 in [10] and in [11] were 42.1 µM (inactive) and > 80 µM (inactive), respectively.
In the case of `N#Cc1ccc(-c2ccc([C@H]3[C@@H]4CN(C(=O)C5CCCC5)C[C@H]3N4)cc2)cc1`, the values for the AC50 in [12] and in assay [13] were 7.4 µM (active) and > 39 µM (inactive), respectively.
For the molecule `Cc1ccc(S(=O)(=O)N(C)C[C@H]2OCc3ccccc3-c3c(n(C)c4ccccc34)C(=O)N([C@@H](C)CO)C[C@H]2C)cc1`, the AC50 was 3.19 µM (active) in assay [14]; 2.01 µM (active) in [15]; 2.23 µM (active) in [12]; 2.63 µM (active) in [16]; 9.17 µM (active) in assay [17].
On to `O=C1C=C(Nc2ccccc2)C(=O)c2ccccc21`, for which the AC50 in [18] is 7.24 µM (active) and 5.31 µM (active); in assay [19], > 70 µM (inactive); in assay [20] it was > 70 µM (inactive); in assay [20] (A-375), 51.5 µM (active); in assay [22], > 70 µM (inactive); in assay [23], > 70 µM (inactive). Also, the AC50 in assay [24] was 3.97 µM (active); in assay [25] it was > 70 µM (inactive); in [26], > 70 µM (inactive); in assay [27] (SK-MEL-5), 1.53 µM (active); in assay [27] (sk-mel-5) it was 1.18 µM (active); in assay [29] (SK-MEL-5), 2.37 µM (active). In addition, the AC50 in assay [29] (sk-mel-5) was 1.93 µM (active). In [21], the EC50 is 1.26 µM (active). Besides, the IC50 in assay [28] is 6.16 µM (not active); in assay [30], 81.7 µM (active).
With `CCN(CC)CCNC(C(=O)OCCC(C)C)c1ccccc1` (stereo unspecified) [CAMYLOFIN], the IC50 in [31] was 24.8 µM (inactive); in [32], > 33.3 µM (inactive).

Values taken from ChEMBL document CHEMBL1201862, “PubChem BioAssay data set” (2004).
